Key:
[1] = target: T1, Mcl-1 protein (residues 171-323) (Homo sapiens, UniProt Q07820); assay: Inhibition of Mcl-1 by fluorescence polarization (FP) competitive binding assay with FAM-Bid tracer; details: 2 nM FAM-Bid, 20 nM Mcl-1, 30 min
T1 construct: Tag-free Mcl-1 protein (residues 171-323) was used in the FP assay
Procedure: Inhibition of Mcl-1 by Fluorescence Polarization (FP) Assay.
The relative binding potency of representative Compounds of the Disclosure was determined by a fluorescence polarization (FP) assay (Long et al, BMC Biotechnology 13:45 (2013)). The method used a fluorescein labelled peptide (FAM-Bid) which binds to the Mcl-1 protein leading to an increased anisotropy measured in milli-polarization (mP) values using a plate reader. […] Tag-free Mcl-1 protein (residues 171-323) was used in the FP assay (Mady et al, Scientific Reports 8: 10210-10210 (2018); Yang et al, ACS Med. Chem. Lett. 3:308-312 (2012)).
A 10-points serial dilution of each compound was prepared in DMSO and 5 μL solution was transferred into flat bottomed, 96-well back plate (final DMSO concentration 5%). 120 μL of Buffer (PBS, 0.01% BGG (Sigma Cat. #SRE0011), 0.01% Triton X-100), containing the Fluorescein labelled peptide (Final concentration 2 nM) and Mcl-1 protein (final concentration 20 nM) was then added. Assay plates were incubated 30 mins at room temperature with gentle shaking before FP was measured on a Biotek Synergy 1MF reader (Ex. 485 nm, Em. 528 nm, Cut off 510 nm) and mP calculated. The binding of increasing doses of test compounds was expressed as a percentage reduction in mP compared to a window established between 5% DMSO only and 100% inhibition controls (no Mcl-1 protein). 10-points dose response curves were plotted with GraphPad software using Sigmoidal Dose-Response Model and the IC50 values were determined by nonlinear regression fitting of the competition curves. Cell Viability Assay (NCI-H929 cells)

OPM-2 cells = assay: Cell viability assay (OPM-2 cells), CCK-8; format: cell-based; details: 5% FBS
Procedure: OPM-2 cells were obtained from Deutsche Sammlung von Mikroorganismen and Zellkulturen GmbH (DSMZ). Cells were maintained in the recommended culture medium with 10% FBS at 37° C. and an atmosphere of 5% CO2.
The effect of representative Compounds of the Disclosure on cell viability was determined using Cell Counting Kit-8 (CCK-8) assay (Shanghai Life iLab Bio Technology) according to the manufacturer's instructions. Each tested compound was serially diluted in culture medium, 100 μL of the compound dilution was added into 96-well plates. 100 μL of an OPM-2 cell suspension (20000 cells/well) in culture medium were seeded into the corresponding well of the plate and the cells were incubated at 37° C. in an atmosphere of 5% CO2 for 24 hours. In the next day, 20 μL of CCK-8 solution was added to each well of the plate and incubated for 4 hours.
The plates were read at 450 nm on the microplate spectrophotometer (SpectraMax plus 384, Molecular devices). The readings were normalized to the vehicle cells, and the IC50 was calculated by nonlinear regression analysis using GraphPad Prism 6 software.

NCI-H929 cells = assay: Cell viability assay (NCI-H929 cells), CCK-8; format: cell-based; details: 5% FBS
Procedure: NCI-H929 cells were obtained from American Type Culture Collection (ATCC). Cells were maintained in the recommended culture medium (RPMI 1640) with 10% FBS and 0.05 mM BME at 37° C. and an atmosphere of 5% CO2.
The effect of Compounds on cell viability was determined using Cell Counting Kit-8 (CCK-8) assay according to the manufacturer's instructions. 95 μL of NCI-H929 cell suspension (20000 cells/well) in culture medium were seeded into 96-well plates and cultured 4 hrs. Each tested compound was serially diluted in DMSO, then 5 μL of the compound or DMSO was diluted in 95 μL medium once more. At last, 5 μL of the compound dilution was added to the corresponding well of the cell plate. After the addition of the tested compound, the cells were incubated at 37° C. in an atmosphere of 5% CO2 for 24 hrs. At the end, 10 μL of CCK-8 solution was added to each well of the plate and incubated for 1-4 hours. The plates were read at 450 nm on the microplate reader (BioTek Synergy 1MF). The readings were normalized to the vehicle cells, and the IC50 was calculated by nonlinear regression analysis using GraphPad Prism 6 software. Cell Viability Assay (OPM-2 cells)

T1 sequence (Q07820 171-323): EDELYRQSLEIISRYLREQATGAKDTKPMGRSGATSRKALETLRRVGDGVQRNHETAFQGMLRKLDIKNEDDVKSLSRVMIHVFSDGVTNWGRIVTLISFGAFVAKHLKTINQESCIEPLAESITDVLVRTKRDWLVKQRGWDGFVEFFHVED

| SMILES | IC50 [1] | IC50 (OPM-2 cells; Homo sapiens, OPM-2, 24 h) | IC50 (NCI-H929 cells; Homo sapiens, NCI-H929, 24 h) | IC50 (OPM-2 cells; 24 h) | IC50 (NCI-H929 cells; 24 h) |
| --- | --- | --- | --- | --- | --- |
| C[C@@H]1[C@@H](C)S(=O)(=O)NC(=O)c2ccc3c(c2)N(C[C@@H]2CC[C@H]2[C@@H](OCCN2C[C@@H](C)N[C@@H](C)C2)C2=C[C@H]1C2)C[C@@]1(CCCc2c1ccc(Cl)c2F)CO3 [compound 83, (1S,11′R,12′S,13′R,16′R,16a′R,18a′R,E)-6-chloro-16′-(2-((3 S,5R)-3,5-dimethylpiperazin-1-yl)ethoxy)-5-fluoro-11′,12′-dimethyl-3,4,12,′13′,16′,16a′,17′,18′,18a′,19′-decahydro-1′H,2H,3′H,11′H-spiro[naphthalene-1,2′-[5,7]etheno[13,15]methanocyclobuta[i][1,4]oxazepino[3,4-f][1]thia[2,7]diazacyclohexadecin]-8′(9′H)-one 10′,10′-dioxide] | 25 nM | 164 nM | 220 nM | – | – |
| C[C@@H]1[C@@H](C)S(=O)(=O)NC(=O)c2ccc3c(c2)N(C[C@@H]2CC[C@H]2[C@@H](OCCN2CCN(C)CC2)C2=C[C@H]1C2)C[C@@]1(CCCc2c1ccc(Cl)c2F)CO3 [compound 86, (1S,11′R,12′S,13′R,16′R,16a′R,18a′R,E)-6-chloro-5-fluoro-11′,12′-dimethyl-16′-(2-(4-methylpiperazin-1-yl)ethoxy)-3,4,12′,13′,16′,16a′,17′,18′,18a′,19′-decahydro-1′H,2H,3′H, 11′H-spiro[naphthalene-1,2′-[5,7]etheno[13,15]methanocyclobuta[i][1,4]oxazepino[3,4-f][1]thia[2,7]diazacyclohexadecin]-8′(9′H)-one 10′,10′-dioxide] | 10 nM | 64 nM | 3.8 nM | – | – |
| C[C@@H]1[C@@H](C)S(=O)(=O)NC(=O)c2ccc3c(c2)N(C[C@@H]2CC[C@H]2[C@@H](OCCN2C[C@@H](C)O[C@@H](C)C2)C2=C[C@H]1C2)C[C@@]1(CCCc2c1ccc(Cl)c2F)CO3 [compound 82, (1S,11′R,12′S,13′R,16′R,16a′R,18a′R,E)-6-chloro-16′-(2-((2S,6R)-2,6-dimethylmorpholino)ethoxy)-5-fluoro-11′,12′-dimethyl-3,4,12′,13′,16′,16a′,17′,18′,18a′,19′-decahydro-1′H,2H,3′H,11′H-spiro[naphthalene-1,2′-[5,7]etheno[13,15]methanocyclobuta[i][1,4]oxazepino[3,4-f][1]thia[2,7]diazacyclohexadecin]-8′(9′H)-one 10′,10′-dioxide] | 31 nM | 54 nM | 56 nM | – | – |
| CO[C@H]1C2=C[C@H](C2)[C@H](C)[C@@H](C)S(=O)(=O)NC(=O)c2ccc3c(c2)N(C[C@@H]2CC[C@H]21)C[C@@]1(CCCc2c1ccc(Cl)c2F)CO3 (single isomer, unassigned) [Cpd. No. 17 (isomer 2)] | 12 nM | 601 nM | 310 nM | – | – |
| CO[C@@H]1C2CC(C2)[C@H](C)N(C)S(=O)(=O)NC(=O)c2ccc3c(c2)N(C[C@@H]2CC[C@H]21)C[C@@]1(CCCc2cc(Cl)ccc21)CO3 [Cpd. No. 29, (1S,12′S,16′R,16a′R,18a′R)-6-chloro-16′-methoxy-11′,12′-dimethyl-3,4,12′,13′,14′,15′,16′,16a′,17′,18′,18a′,19′-dodecahydro-1′H,2H,3′H,11′H-spiro[naphthalene-1,2′-[5,7]etheno[13,15]methanocyclobuta[i][1,4]oxazepino[3,4-f][1]thia[2,7,16]triazacyclohexadecin]-8′(9′H)-one 10′,10′-dioxide] | 16 nM | 5210 nM | 5500 nM | – | – |
| CO[C@@H]1C2=CC(C2)CC(C)S(=O)(=O)NC(=O)c2ccc3c(c2)N(C[C@@H]2CC[C@H]21)C[C@@]1(CCCc2cc(Cl)ccc21)CO3 (mixture of isomers) [7 (mixture)] | 5.1 nM | 5580 nM | 2300 nM | – | – |
| CC(C)[C@@H]1C2=C[C@@H](C2)[C@H](C)[C@@H](C)S(=O)(=O)NC(=O)c2ccc3c(c2)N(C[C@@H]2CC[C@H]21)C[C@@]1(CCCc2c1ccc(Cl)c2F)CO3 [compound 55, (1S,11′R,12′S,13′R,16′S,16a′S,18a′R)-6-chloro-5-fluoro-16′-isopropyl-11′,12′-dimethyl-3,4,12′,13′,16′,16a′,17′,18′,18a′,19′-decahydro-1′H,2H,3′H,11′H-spiro[naphthalene-1,2′-[5,7]etheno[13,15]methanocyclobuta[i][1,4]oxazepino[3,4-f][1]thia[2,7]diazacyclohexadecin]-8′(9′H)-one 10′,10′-dioxide] | 13 nM | 1010 nM | 1000 nM | – | – |
| COCCN[C@H]1C2=C[C@@H](C2)[C@H](C)[C@@H](C)S(=O)(=O)NC(=O)c2ccc3c(c2)N(C[C@@H]2CC[C@H]21)C[C@@]1(CCCc2c1ccc(Cl)c2F)CO3 [compound 58, (1S,11′R,12′S,13′R,16′R,16a′R,18a′R)-6-chloro-5-fluoro-16′-((2-methoxyethyl)amino)-11′,12′-dimethyl-3,4,12′,13′,16′,16a′,17′,18′,18a′,19′-decahydro-1′H,2H,3′H, 11′H-spiro[naphthalene-1,2′-[5,7]etheno[13,15]methanocyclobuta[i][1,4]oxazepino[3,4-f][1]thia[2,7]diazacyclohexadecin]-8′(9′H)-one 10′,10′-dioxide] | 19 nM | 57 nM | 18 nM | – | – |
| CO[C@@H]1C2=CC(C2)C(C)(C)CS(=O)(=O)NC(=O)c2ccc3c(c2)N(C[C@@H]2CC[C@H]21)C[C@@]1(CCCc2cc(Cl)ccc21)CO3 (single isomer, unassigned) [Cpd. No. 6 (Isomer 2)] | 6.3 nM | – | – | 2870 nM | 3400 nM |
| CO[C@H]1C2=C[C@H](C2)[C@H](C)[C@@H](C)S(=O)(=O)NC(=O)c2ccc3c(c2)N(C[C@@H]2CC[C@H]21)C[C@@]1(CCCc2cc(Cl)ccc21)CO3 (single isomer, unassigned) [Cpd. No. 15 (isomer 2)] | 6.5 nM | 1000 nM | 230 nM | – | – |
| CO[C@@]1(CN2CCNC(=O)C2)C2=C[C@@H](C2)[C@H](C)[C@@H](C)S(=O)(=O)NC(=O)c2ccc3c(c2)N(C[C@@H]2CC[C@H]21)C[C@@]1(CCCc2c1ccc(Cl)c2F)CO3 [compound 42, (1S,11′R,12′S,13′R,16′R,16a′R,18a′R,E)-6-chloro-5-fluoro-16′-methoxy-11′,12′-dimethyl-16′-((3-oxopiperazin-1-yl)methyl)-3,4,12′,13′,16′,16a′,17′,18′,18a′,19′-decahydro-1′H,2H,3′H, 11′H-spiro[naphthalene-1,2′-[5,7]etheno[13,15]methanocyclobuta[i][1,4]oxazepino[3,4-f][1]thia[2,7]diazacyclohexadecin]-8′(9′H)-one 10′,10′-dioxide] | 13 nM | 66 nM | 51 nM | – | – |
| C[C@@H]1[C@@H](C)S(=O)(=O)NC(=O)c2ccc3c(c2)N(C[C@@H]2CC[C@H]2[C@@H](OCCN2CCN(S(C)(=O)=O)CC2)C2=C[C@H]1C2)C[C@@]1(CCCc2c1ccc(Cl)c2F)CO3 [compound 76, (1S,11′R,12′5,13′R,16′R,16a′R,18a′R,E)-6-chloro-5-fluoro-11′,12′-dimethyl-16′-(2-(4-(methylsulfonyl)piperazin-1-yl)ethoxy)-3,4,12′,13′,16′,16a′,17′,18′,18a′,19′-decahydro-1′H,2H,3′H,11′H-spiro[naphthalene-1,2′-[5,7]etheno[13,15]methanocyclobuta[i][1,4]oxazepino[3,4-f][1]thia[2,7]diazacyclohexadecin]-8′(9′H)-one 10′,10′-dioxide] | 21 nM | 206 nM | 37 nM | – | – |
